Like-named read-outs stand apart in the source and are kept apart here.
Key:
WEEV California = experiment: microbe, parasite or virus in culture; type: cell-based; details: Western equine encephalitis virus, Vero 76, 48 h, read-out: WEEV California EC50 nM
VEEV TC83 = experiment: microbe, parasite or virus in culture; type: cell-based; details: Venezuelan equine encephalitis virus, Vero 76, 48 h, read-out: VEEV TC83 EC50 nM
EEEV FL93-939 [1] = experiment: microbe, parasite or virus in culture; type: cell-based; details: Eastern equine encephalitis virus, Vero 76, 48 h, read-out: EEEV FL93-939 EC50
EEEV BeAr 436087 = experiment: microbe, parasite or virus in culture; type: cell-based; details: Eastern equine encephalitis virus, Vero 76, 48 h, read-out: EEEV BeAr 436087 EC50 nM
VEEV TrD = system: VEEV TrD; parameters: species or system BALB/C mice; details: mouse, in vivo
EEEV FL93-939 [2] = system: EEEV FL93-939; parameters: species or system C57BL/6 mice; details: mouse, in vivo

Row | Compound | EC50 (WEEV California) [nM] | EC50 (VEEV TC83) [nM] | EC50 (EEEV FL93-939 [1]) [nM] | EC50 (EEEV BeAr 436087) [nM] | also measured
1 | COc1ccc(-n2c([C@H]3CCCN3)nc3c(-c4ccc(F)nc4)cc([N+](=O)[O-])cc3c2=O)cc1F [Example 89, (R)-3-(3-fluoro-4-methoxyphenyl)-8-(6-fluoropyridin-3-yl)-6-nitro-2-(pyrrolidin-2-yl) quinazolin-4 (3H)-one] | 1 to 50 | 1 to 50 | 51 to 150 | 51 to 150 | 
2 | COc1ccc(-n2c([C@H]3C[C@H](F)CN3)nc3c(C)cc([N+](=O)[O-])cc3c2=O)cc1 [Example 61, 2-((2R,4S)-4-fluoropyrrolidin-2-yl)-3-(4-methoxyphenyl)-8-methyl-6-nitroquinazolin-4 (3H)-one] | 51 to 150 | 1 to 50 | 51 to 150 | 51 to 150 | melting point: 183.06 to 185.34 °C
3 | COc1ccc(-n2c([C@H]3CCCN3)nc3c(C)cc([N+](=O)[O-])cc3c2=O)cc1 [Example 55, (R)-3-(4-methoxyphenyl)-8-methyl-6-nitro-2-(pyrrolidin-2-yl) quinazolin-4 (3H)-one] | 1 to 50 | 1 to 50 | 51 to 150 | 51 to 150 | day 14 % survival (VEEV TrD): 100%; survival rate (VEEV TrD; 12 mg/kg/day): 75%; survival rate (VEEV TrD; 24 mg/kg/day): 75%; survival rate (VEEV TrD; 48 mg/kg/day): 100%; % survival on day 21 (EEEV FL93-939 [2]; 12 mg/kg/day): 30%; % survival on day 21 (EEEV FL93-939 [2]; 25 mg/kg/day): 60%; % survival on day 21 (EEEV FL93-939 [2]; 50 mg/kg/day): 70%
4 | COc1ccc(-n2c([C@H]3CCNC3)nc3ccc([N+](=O)[O-])cc3c2=O)cc1 [Example 18, (S)-3-(4-methoxyphenyl)-6-nitro-2-(pyrrolidin-3-yl) quinazolin-4 (3H)-one] | 151 to 500 | 1 to 50 | 151 to 500 | 51 to 150 | 
5 | COc1ccc(-n2c(C3CCCN3)nc3c(-c4ccc(C)nc4)cc(C#N)cc3c2=O)cc1F (stereo not shown) [Example 101, 3-(3-fluoro-4-methoxyphenyl)-8-(6-methylpyridin-3-yl)-4-oxo-2-(pyrrolidin-2-yl)-3,4-dihydroquinazoline-6-carbonitrile] | 1 to 50 | 1 to 50 | 51 to 150 | 51 to 150 | 
6 | COc1ccc(-n2c([C@H]3CCCN3C)nc3c(C)cc([N+](=O)[O-])cc3c2=O)cc1 [Example 57, (R)-3-(4-methoxyphenyl)-8-methyl-2-(1-methylpyrrolidin-2-yl)-6-nitroquinazolin-4 (3H)-one] | 151 to 500 | 51 to 150 | 51 to 150 | 51 to 150 | 
7 | COc1ccc(-n2c([C@H]3CCCN3)nc3c(-c4ccc(C(F)(F)F)nc4)cc(C#N)cc3c2=O)cc1F [Example 100, (R)-3-(3-fluoro-4-methoxyphenyl)-4-oxo-2-(pyrrolidin-2-yl)-8-(6-(trifluoromethyl)pyridin-3-yl)-3,4-dihydroquinazoline-6-carbonitrile] | 1 to 50 | 1 to 50 | 51 to 150 | 51 to 150 | 
8 | COc1ccc(-n2c([C@H]3CCCN3)nc3c(-c4cccnc4)cc(C#N)cc3c2=O)cc1F [Example 107, (R)-3-(3-fluoro-4-methoxyphenyl)-4-oxo-8-(pyridin-3-yl)-2-(pyrrolidin-2-yl)-3,4-dihydroquinazoline-6-carbonitrile] | 1 to 50 | 1 to 50 | 51 to 150 | 1 to 50 | 
9 | COc1ccc(-n2c([C@H]3CCCN3C)nc3ccc([N+](=O)[O-])cc3c2=O)cc1 [Example 10, (R)-3-(4-methoxyphenyl)-2-(1-methylpyrrolidin-2-yl)-6-nitroquinazolin-4 (3H)-one] | 151 to 500 | 1 to 50 | 151 to 500 | 51 to 150 | 
10 | COc1ccc(-n2c([C@@H]3CCCN3C)nc3c(C)cc([N+](=O)[O-])cc3c2=O)cc1 [Example 58, (S)-3-(4-methoxyphenyl)-8-methyl-2-(1-methylpyrrolidin-2-yl)-6-nitroquinazolin-4 (3H)-one] | 1 to 50 | 1 to 50 | 51 to 150 | 51 to 150 | 
11 | COc1ccc(-n2c([C@H]3CCCN3)nc3c(C)cc([N+](=O)[O-])cc3c2=O)cc1F [Example 59] | 1 to 50 | 1 to 50 | 51 to 150 | 51 to 150 | 
12 | COc1ccc(-n2c([C@H]3C[C@H](F)CN3)nc3c(-c4cccnc4)cc([N+](=O)[O-])cc3c2=O)cc1 [Example 86, 2-((2R,4S)-4-fluoropyrrolidin-2-yl)-3-(4-methoxyphenyl)-6-nitro-8-(pyridin-3-yl) quinazolin-4 (3H)-one] | 1 to 50 | 1 to 50 | 51 to 150 | 51 to 150 | 
13 | COc1ccc(-n2c([C@H]3C[C@H](F)CN3)nc3c(C)cc(C#N)cc3c2=O)cc1 [Example 53, 2-((2R,4S)-4-fluoropyrrolidin-2-yl)-3-(4-methoxyphenyl)-8-methyl-4-oxo-3,4-dihydroquinazoline-6-carbonitrile] | 151 to 500 | 151 to 500 |  |  | 
14 | Cc1ccc(-c2cc(C#N)cc3c(=O)n(-c4ccc(N(C)C)c(F)c4)c(C4CCCN4)nc23)cn1 (stereo not shown) [Example 145, 3-(4-(Dimethylamino)-3-fluorophenyl)-8-(6-methylpyridin-3-yl)-4-oxo-2-(pyrrolidin-2-yl)-3,4-dihydroquinazoline-6-carbonitrile] | 151 to 500 | 1 to 50 |  |  | 
15 | COc1ccc(-n2c([C@@H]3CCCN3)nc3c(C)cc([N+](=O)[O-])cc3c2=O)cc1 [Example 56, (S)-3-(4-methoxyphenyl)-8-methyl-6-nitro-2-(pyrrolidin-2-yl) quinazolin-4 (3H)-one] | 51 to 150 | 1 to 50 |  |  | 
16 | COc1ccc(-n2c([C@H]3CCCN3)nc3c(-c4ccc(C(F)(F)F)nc4)cc([N+](=O)[O-])cc3c2=O)cc1F [Example 91, (R)-3-(3-fluoro-4-methoxyphenyl)-6-nitro-2-(pyrrolidin-2-yl)-8-(6-(trifluoromethyl)pyridin-3-yl) quinazolin-4 (3H)-one] | 1 to 50 | 1 to 50 |  |  | 
17 | COc1ccc(-n2c(C3CCCN3C3CCOCC3)nc3ccc(F)c(F)c3c2=O)cc1 (stereo in doubt) [Example 29, (S)-5,6-difluoro-3-(4-methoxyphenyl)-2-(1-(tetrahydro-2H-pyran-4-yl)pyrrolidin-2-yl) quinazolin-4 (3H)-one] | > 1000 | > 1000 |  |  | 
18 | COc1ccc(-n2c([C@H]3CCN(C)C3)nc3c(C)cc([N+](=O)[O-])cc3c2=O)cc1F [Example 66, (S)-3-(3-fluoro-4-methoxyphenyl)-8-methyl-2-(1-methylpyrrolidin-3-yl)-6-nitroquinazolin-4 (3H)-one] | 151 to 500 | 151 to 500 |  |  | 
19 | COc1c(F)cc(-n2c(C3CCCN3)nc3c(-c4ccc(CO)nc4)cc(C#N)cc3c2=O)cc1F (stereo not shown) [Example 180, 3-(3,5-difluoro-4-methoxyphenyl)-8-(6-(hydroxymethyl)pyridin-3-yl)-4-oxo-2-(pyrrolidin-2-yl)-3,4-dihydroquinazoline-6-carbonitrile] | 1 to 50 | 1 to 50 |  |  | 
20 | COc1c(F)cc(-n2c(C3CCNC3)nc3c(-c4ccc(C)nc4)cc(C#N)cc3c2=O)cc1F (stereo not shown) [Example 188, 3-(3,5-difluoro-4-methoxyphenyl)-8-(6-methylpyridin-3-yl)-4-oxo-2-(pyrrolidin-3-yl)-3,4-dihydroquinazoline-6-carbonitrile] | 1 to 50 | 1 to 50 |  |  | 
21 | COc1ccc(-n2c(C3CCCN3)nc3c(-c4ccc(S(C)(=O)=O)cc4)cc(C#N)cc3c2=O)cc1F (stereo not shown) [Example 136, 3-(3-fluoro-4-methoxyphenyl)-8-(4-(methylsulfonyl)phenyl)-4-oxo-2-(pyrrolidin-2-yl)-3,4-dihydroquinazoline-6-carbonitrile] | 1 to 50 | 1 to 50 |  |  | 
22 | O=c1c2cc([N+](=O)[O-])ccc2nc(C2CCCN2)n1-c1cccc(Cl)c1 (stereo not shown) [Example 39, 3-(3-chlorophenyl)-6-nitro-2-(pyrrolidin-2-yl) quinazolin-4 (3H)-one] | > 1000 | 51 to 150 |  |  | 
